Source: patent publication EP0986381B1, “USE OF DITERPENES LIKE HYPOESTOXIDES FOR THE MANUFACTURE OF A MEDICAMENT FOR IMMUNOSUPPRESSION, ANTICANCER AND ANTIVIRAL TREATMENT” (Immune Modulation, Inc., priority 1997, dated 1998)

Key:
[1] = Colorimetric MTT cytotoxicity assay, HUVEC; assay type: cell-based; conditions: human, read-out: IC50 concentration (cytotoxicity)
Method: (§1) The following materials and methods were employed in the non-limiting Examples set out below. Tumor cells: Human cervical epitheloid carcinoma (HeLa), human renal clear cell carcinoma (CAKI-1), human malignant melanoma (RPMI-7951) and mouse malignant melanoma (B16-F1) were procured from ATCC (Rockville, MD) and maintained in vitro with MEM medium (Mediatech, Inc., Herndon, VA) supplemented with 10% heat-inactivated fetal bovine serum (American Qualex, San Clemente, CA), 10mM glutamine, 100 U/ml penicillin, and 100 µg/ml streptomycin (Sigma Chemicals, Saint Louis, MO) (complete medium). […] Cell viability was assessed by trypan blue dye exclusion test and the cell number was adjusted to required concentration. Colorimetric MTT assay: Cytotoxic effects of the hypoestoxide compounds of formulas I and II (JO-4A) were determined in vitro by a colorimetric assay (Mosmann, T., J. Immunol. Methods, 65: 55-63, 1983). […] Mixing with a multichannel pipetter dissolved the dark blue crystals and the absorbance was measured at 545-650 nm using an ELISA plate reader. […] The tumors were measured with a microcaliper, and the tumor volume was calculated by the formula: Length x width x height x 0.5236 (Jungwirth, A. et al., Proc. Natl. Acad. Sci. USA, 94:5810-5813, 1997). […]

[2] = tested on: mouse malignant melanoma cells (B16-F1); experiment: Colorimetric MTT cytotoxicity assay, B16-F1; assay type: cell-based; conditions: B16-F1, 72 hours, read-out: IC50 concentration (cytotoxicity)
Method: as §1

[3] = tested on: HIV-1 isolate from a patient; experiment: In vitro HIV-1 replication assay in PBMC, p24 antigen EIA; assay type: cell-based, Human Immunodeficiency Virus type 1; conditions: Human immunodeficiency virus 1, 168 h, PHA-activated human PBMC, 7 days
Method: In Vitro HIV-1 Replication Assay: A standardized peripheral blood mononuclear cell culture assay for the determination of drug susceptibilities of clinical human HIV-1 isolates was utilized (Japour AJ et al. Antimicro Agents Chemother 1993; 37:1095-1101). Peripheral blood mononuclear cells (2 x 10^6 cells/ml) were stimulated with PHA (5 µg/ml) in complete culture medium at 37°C, in a 5% CO2-95% air-humidified incubator for 72 hours. The 3-day-old PHA-stimulated PBMC was sedimented at 400 g for 10 min at 20-24°C. Supernatant was removed and discarded. The cells were resuspended in complete culture medium supplemented with 3% IL-2. Cell viability was determined with 0.4% trypan blue. Viability was greater than 85%. Cell concentration was adjusted to 4x10^6/ml. Cells were dispensed in 50 µl volumes (2x10^5/well) into 96 well microtiter plates containing 50 µl complete culture medium. HIV-1 infected cultures were initiated with a patient's HIV-1 isolate (50 µl/well) at a multiplicity of infection (MOI) of 0.05 and 0.1 respectively. JO-4A was added to wells in 50 µl volumes at varying concentrations (0.0001 µM - 0.5 µM). The plates were incubated at 37°C and 5% CO2 in humidified chamber for 7 days. On day 4, half of the spent medium (100 µl) was discarded, and 50 µl of fresh complete medium and 50 µl of fresh JO-4A (varying concentrations as above) were added to wells containing spent JO-4A. […]

human PBMCs = experiment: Toxicity on human PBMC, trypan blue dye exclusion; assay type: cell-based; conditions: 1.25, 2.5 and 5 µg/mL; 2, 5 and 7 days
Method: In order to determine if JO-4 was toxic on human cells in vitro, human PBMCs were cultured in the absence or presence of varying concentrations of JO-4 (1.25, 2.5, and 5 µg/mL) for different days (2, 5 and 7 days). At the end of each incubation period, viability of cells was determined by trypan blue dye exclusion method.

HSV-1 = experiment: In vitro HSV-1 replication assay, Hybriwix Probe Systems; assay type: cell-based, Herpes simplex virus; conditions: Human alphaherpesvirus 1, 48 h, two days, African green monkey kidney cells
Method: The antiviral activity of the drug was determined using the Hybriwix™ Probe Systems (Herpes Antiviral Susceptibility Test kit: Diagnostic Hybrids, Inc., Athens, OH). Briefly, either HSV-1 or HSV-2 isolates (ATTC, Rockville, MD) were pre-adsorbed at 37°C and 5% CO2 in a humidified incubator for 60 minutes on African green monkey Kidney cells in a 24-well flat-bottom plate. Following pre-adsorption, the viral inoculum was removed and the growth medium containing various concentrations of appropriate drug was placed in appropriate wells. The culture was continued for 48 hours for the amplification of the virus. Quantification of the HSV DNA present in each well was determined by the nucleic acid hybridization method. The cells and/or virus were lysed with DNA wicking agent and the single-stranded DNA was immobilized on a Hybriwix™ filter by a vertical capillary absorption of the wicking agent/DNA solution. The amount of HSV target DNA from each well was determined using radioactive (I^125)-HSV DNA probe containing genetic sequences, which are homologous to HSV-1 or HSV-2 sequences. The amount of radioactivity present on the Hybriwix™ was dependent upon the amount of HSV DNA present after culture, and was determined in a gamma counter (Packard Instrument Co., Meriden, CT).

In the case of `C=C1C(=O)CC2CC3OC3(C)CCC3OC3(C)CC(O)C1C2(C)C` (stereo not shown) [JO-4A], the CC50 at 72 h [1] is reported as 25 to 50 µM, the IC50 [2] is reported as 6.25 to 12.5 µM and the IC50 [3] is reported as 0.0001 to 0.01 µM.

With `C=C1C(=O)C[C@H]2C[C@@H]3O[C@@]3(C)CC[C@@H]3O[C@@]3(C)C[C@@H](OC(C)=O)[C@H]1C2(C)C` [JO-4, hypoestoxide] the toxicity to lymphocytes (human PBMCs) was “not toxic”, the inhibition at 3.125 µM (HSV-1; 3.125 µM) was 53% and the inhibition at 12.5 µM (HSV-1; 12.5 µM) was 60%. For the same compound, the IC50 (HSV-1; read-out: IC50 dose on HSV-1 inhibition) was ~3.12 µM.
